{"source": "patent US20030220482A1", "about": "“Novel peptide antagonist of CXCR4 derived from the N-terminus of the viral chemokine vMIP-II” (priority 2000, published 2003)", "key": {"CCR5 [1]": {"molecular_target": "T1, CCR5 (Homo sapiens, UniProt P51681)", "T1 construct": "expressed in transfected cells; host or cells: 293 cells", "T1 sequence (P51681 whole entry, the tested form may be a part)": "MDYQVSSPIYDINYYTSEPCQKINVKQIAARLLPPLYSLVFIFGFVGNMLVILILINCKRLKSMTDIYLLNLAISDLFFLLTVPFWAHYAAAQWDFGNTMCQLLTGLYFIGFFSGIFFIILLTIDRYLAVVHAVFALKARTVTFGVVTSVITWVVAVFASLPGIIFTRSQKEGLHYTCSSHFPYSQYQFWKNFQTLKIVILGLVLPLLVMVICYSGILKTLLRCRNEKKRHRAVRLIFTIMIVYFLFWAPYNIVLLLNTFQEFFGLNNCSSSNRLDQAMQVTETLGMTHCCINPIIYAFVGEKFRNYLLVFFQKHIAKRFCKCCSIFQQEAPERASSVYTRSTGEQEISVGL", "experiment": "Gene reporter cell-cell fusion assay, HIV-1 coreceptor function of CCR5", "format": "cell-based"}, "CCR5 [2]": {"molecular_target": "T1, CCR5", "experiment": "Intracellular calcium influx in CCR5 transfected 293 cells", "format": "cell-based", "experimental": "(§1) Sup T1 cells and CCR5 transfected 293 cells were used to measure the intracellular calcium influx. [Ca^2+]i was measured using excitation at 340 and 380 nm on a fluorescence spectrometer (Perkin Elmer LS50). Calibration was performed using 10% Triton X-100 for total fluorophore release and 0.5 M EGTA to chelate free Ca^2+. Intracellular Ca^2+ concentrations were calculated by using the fluorescence spectrometer measurement program."}, "CXCR4 [3]": {"molecular_target": "T2, CXCR4 (Homo sapiens, UniProt P61073)", "T2 sequence (P61073 whole entry)": "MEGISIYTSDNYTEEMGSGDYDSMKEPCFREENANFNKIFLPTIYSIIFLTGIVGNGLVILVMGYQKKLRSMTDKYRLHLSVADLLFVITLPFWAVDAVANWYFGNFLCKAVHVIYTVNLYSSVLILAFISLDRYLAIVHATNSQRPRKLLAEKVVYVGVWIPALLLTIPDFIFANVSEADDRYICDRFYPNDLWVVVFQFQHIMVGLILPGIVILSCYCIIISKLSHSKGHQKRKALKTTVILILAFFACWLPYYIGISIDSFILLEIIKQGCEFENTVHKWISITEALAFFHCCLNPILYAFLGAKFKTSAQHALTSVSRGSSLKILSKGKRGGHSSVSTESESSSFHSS", "experiment": "anti-CXCR4 mAb 12G5 competitive binding (flow cytometry, Sup T1 cells)", "set-up": "endogenous in cells", "settings": "relative to SDF-1", "experimental": "Sup T1 cells (2×10^5) were washed with FACS buffer (0.5% bovine serum albumin, 0.05% sodium azide in PBS) and incubated with an anti-CXCR4 monoclonal antibody (mAb) 12G5 (10 μg/ml) for 30 min at 4° C. After washing with FACS buffer, cells were incubated with 10 μg FITC conjugated goat anti-mouse IgG (Southern Biotechnology Associates, Inc. Birmingham, Ala.) for 30 min at 4° C. After washing twice with FACS buffer, cells were fixed in the fixing buffer (2% palaformaldehyde in PBS) and then analyzed on a FACScan flow cytometer (Coulter EPICS Elite, Coolten Corp., Hialeah, Fla.)."}, "CXCR4 [4]": {"molecular_target": "T2, CXCR4", "experiment": "Intracellular calcium influx in Sup T1 cells", "format": "cell-based", "set-up": "endogenous in cells", "experimental": "as §1"}, "CXCR4 [5]": {"molecular_target": "T2, CXCR4", "experiment": "125I-SDF-1α competitive binding to CXCR4 (CEM-T4 cells)", "set-up": "endogenous in cells; host or cells: CEM-T4 cells", "settings": "for CXCR4 binding (in words): 125I-SDF-1α competitive binding, FIG. 1", "experimental": "^125I-SDF-1α Competitive Binding to CXCR4\nCEM-T4 cells were harvested and washed twice with PBS. […] Nonspecific binding was determined by the addition of 100 nM unlabeled SDF-1α Samples were incubated for 60 min at room temperature. The incubation was terminated by separating the cells from the binding buffer by centrifugation and washing once with 500 μl of cold binding buffer. Bound ligands were quantitated by counting γ emissions."}, "CXCR4 [6]": {"molecular_target": "T2, CXCR4", "experiment": "Gene reporter cell-cell fusion assay, HIV-1 coreceptor function of CXCR4", "format": "cell-based", "set-up": "expressed in transfected cells; host or cells: NIH/3T3 cells", "settings": "for inhibition of T- and dual-tropic HIV-1 gp120-mediated cell-cell fusion via CXCR4 (in words): vSC60 (BH10) T-tropic and 89.6 dual-tropic isolates"}, "CXCR4 [7]": {"molecular_target": "T2, CXCR4", "experiment": "CXCR4 internalization", "format": "cell-based", "set-up": "CEM-T4 cells were harvested and washed twice with PBS; endogenous in cells; host or cells: CEM-T4 cells"}, "CCR5 [8]": {"molecular_target": "T1, CCR5", "experiment": "125I-MIP-1β competitive binding to CCR5 (CCR5-transfected 293 cells)", "settings": "competitive binding with radiolabeled MIP-1β", "description": "^125I-MIP-1β Competitive Binding to CCR5\nFollowing a similar experimental procedure as described above, 293 cells transfected with CCR5 and ^125I-MIP-1β were used to determine the specific binding activity of peptides to CCR5."}, "Sup T1 cells": {"tested_on": "Sup T1 cells", "experiment": "Chemotaxis of Sup T1 cells induced by SDF-1", "format": "cell-based", "experimental": "Migration of Sup T1 cells was assessed in disposable Transwell trays (Costar, Cambridge, Mass.) with 6.5 -mm diameter chambers and membrane pore size of […]. […] For peptide inhibition experiments, the cells were preincubated with various concentrations of the peptide for 15 min at 25° C. The peptide at the same concentration was also added to the lower well. After incubation at 37° C. and 5% CO2 for 4 h, cells that migrated to the lower well were counted. Chemotactic migration was determined by subtraction of cells migrated in medium alone (Blank control experiment)."}}, "note": "“Also recorded” adds a separate entry of the source. Peptide text beside a SMILES is read from it."}
{"compound": "CC(C)C[C@H](NC(=O)[C@H](CS)NC(=O)[C@H](CS)NC(=O)[C@H](CCCCN)NC(=O)[C@H](CC(=O)O)NC(=O)[C@@H]1CCCN1C(=O)[C@H](CCCNC(=N)N)NC(=O)[C@H](Cc1c[nH]cn1)NC(=O)[C@H](Cc1c[nH]c2ccccc12)NC(=O)[C@H](CO)NC(=O)[C@H](C)NC(=O)CNC(=O)[C@@H](N)CC(C)C)C(=O)NCC(=O)N[C@@H](Cc1ccc(O)cc1)C(=O)N[C@@H](CCC(N)=O)C(=O)N[C@@H](CCCCN)C(=O)N[C@@H](CCCNC(=N)N)C(=O)N1CCC[C@H]1C(=O)N[C@@H](CC(C)C)C(=O)N1CCC[C@H]1C(N)=O", "note": "[V1] (H-LGASWHRPDKCCLGYQKRPLP-NH2; N-terminus and C-terminus assumed)", "values": [{"measurement": "effect on M-tropic HIV-1 gp120-mediated cell-cell fusion via CCR5 (in words)", "setting": "CCR5 [1]", "value": "displayed no effect"}, {"measurement": "signaling activity via CCR5 (calcium influx, in words)", "setting": "CCR5 [2]", "value": "neither displayed signaling activity"}, {"measurement": "blocking of signal induced by MIP-1β via CCR5 (in words)", "setting": "CCR5 [2]; MIP-1β 100 nM", "value": "nor blocked the signal"}, {"measurement": "fold less potent than SDF-1, mAb 12G5 competition", "setting": "CXCR4 [3]", "value": "about 33 fold"}, {"measurement": "blocking of SDF-1 signal (calcium influx, in words)", "setting": "CXCR4 [4]; peptide 200 μM, SDF-1 100 nM", "value": "almost completely blocked SDF-1 signal"}, {"measurement": "signaling activity via CXCR4 (calcium influx, in words)", "setting": "CXCR4 [4]; various concentrations", "value": "did not show any signaling activity"}, {"measurement": "fold less potent than SDF-1, 125I-SDF-1α competition", "setting": "CXCR4 [5]; relative to SDF-1", "value": "~70", "unit": "fold"}, {"measurement": "inhibition of T- and dual-tropic HIV-1 gp120-mediated cell-cell fusion via CXCR4 (in words)", "setting": "CXCR4 [6]", "value": "showed inhibition"}, {"measurement": "induction of CXCR4 internalization (in words)", "setting": "CXCR4 [7]", "value": "induction of CXCR4 internalization"}, {"measurement": "CCR5 binding (in words)", "setting": "CCR5 [8]", "value": "did not display any interaction"}, {"measurement": "inhibition of chemotactic activity of SDF-1 (in words)", "setting": "Sup T1 cells", "value": "inhibit the chemotactic activity of SDF-1 in a concentration dependent manner"}]}
{"compound": "HRPDKCCLGYQKR (v-MIPII derived peptide) [V2, VMIP-II, 6-18]", "values": [{"measurement": "effect on M-tropic HIV-1 gp120-mediated cell-cell fusion via CCR5 (in words)", "setting": "CCR5 [1]", "value": "displayed no effect"}, {"measurement": "effect on CCR5 signal transduction (in words)", "setting": "CCR5 [2]", "value": "did not show any effect"}, {"measurement": "effect on CXCR4 signal transduction (in words)", "setting": "CXCR4 [4]", "value": "did not show any effect"}, {"measurement": "CXCR4 binding (in words)", "setting": "CXCR4 [5]", "value": "significant loss in CXCR4 binding; also recorded: does not bind"}, {"measurement": "inhibition of T- and dual-tropic HIV-1 gp120-mediated cell-cell fusion via CXCR4 (in words)", "setting": "CXCR4 [6]", "value": "did not show any activity"}, {"measurement": "CCR5 binding (in words)", "setting": "CCR5 [8]", "value": "does not bind"}]}
{"compound": "LGASWHRPDK (v-MIPII derived peptide) [V3, VMIP-II, 1-10]", "values": [{"measurement": "CXCR4 binding (in words)", "setting": "CXCR4 [5]", "value": "retained some activity"}]}
{"compound": "SDF-1: Recombinant human chemokine, Stromal cell Derived Factor-1, a natural CXCR4 ligand, used as control [reference compound]", "values": [{"measurement": "inhibition of cell-cell fusion", "setting": "CXCR4 [6]; at 200 nM", "value": 45, "unit": "%"}]}
